{"source": "patent US6680067B2", "about": "(priority 2001, dated 2004)", "key": {"Sprague-Dawley rats": {"tested_on": "Sprague-Dawley rats", "assay": "rat cold ethanol tail-flick test (analgesic effect)", "type": "in vivo", "settings": "intramuscular, 25 μM/kg, FIG. 5"}, "[1]": {"assay": "pharmacokinetics of nalbuphine in rat plasma after intramuscular injection", "settings": "for k01: hydrochloride", "experimental": "Each group consisted of 6 rats and each rat was injected once intramuscularly on the rear leg."}, "[2]": {"assay": "pharmacokinetics of nalbuphine in beagle plasma after intramuscular injection", "settings": "for k01: hydrochloride"}, "[3]": {"settings": "Shafer et al. 1991; cited from earlier work"}, "[4]": {"settings": "male, Sprague-Dawley, rat, plasma, im, 24 mg/kg"}, "[5]": {"settings": "beagle, dog, plasma, im, 5 mg/kg"}, "[6]": {"settings": "beagles, i.m., dose 5 mg/kg, n = 5, mean ± S.E."}}, "note": "Counter-ions that a name gives are not always drawn.", "data": [{"smiles": "Oc1ccc2c3c1O[C@H]1[C@@H](O)CC[C@@]4(O)[C@@H](C2)N(CC2CCC2)CC[C@]314", "note": "[Nalbuphine-HCl, nalbuphine hydrochloride]", "values": [{"measurement": "10% analgesic effect (duration)", "setting": "Sprague-Dawley rats", "result": 2.7, "unit": "h"}, {"measurement": "50% analgesic effect (duration)", "setting": "Sprague-Dawley rats", "result": 1.2, "unit": "h"}, {"measurement": "β or k10", "setting": "[1]; Sprague-Dawley rats, i.m., 24 mg/kg (FIG. 7), means ± S.E.", "result": "0.43 ± 0.21", "unit": "h⁻¹"}, {"measurement": "k01", "setting": "[1]; Sprague-Dawley rats, i.m., 24 mg/kg (FIG. 7), means ± S.E., 24 mg/kg", "result": "12.1 ± 14.1", "unit": "h⁻¹"}, {"measurement": "k01", "setting": "[1]; Sprague-Dawley rats, i.m., 24 mg/kg (FIG. 7), means ± S.E., listed as nalbuphine hydrochloride, 24 mg/kg", "result": "12.1 ± 14.1", "unit": "h⁻¹"}, {"measurement": "AUC", "setting": "[1]; [4]", "result": "8040 ± 2880", "unit": "ng·h/mL"}, {"measurement": "CL/F", "setting": "[1]; [4]", "result": 58.3, "unit": "mL/min/kg"}, {"measurement": "Cmax", "setting": "[1]; [4]", "result": "2230 ± 669", "unit": "ng/mL"}, {"measurement": "MRT", "setting": "[1]; [4]", "result": "180 ± 72", "unit": "min"}, {"measurement": "Tmax", "setting": "[1]; [4]", "result": "27 ± 14.4", "unit": "min"}, {"measurement": "half-life", "setting": "[1]; male, Sprague-Dawley, rat, plasma, im, 24 mg/kg, t1/2, k01, Sprague-Dawley rats, 24 mg/kg (FIG. 7), means ± S.E.", "result": "8.4 ± 9", "unit": "min"}, {"measurement": "half-life", "setting": "[1]; male, Sprague-Dawley, rat, plasma, im, 24 mg/kg, t1/2, β (elimination half-life), Sprague-Dawley rats, 24 mg/kg (FIG. 7), means ± S.E.", "result": "114 ± 48", "unit": "min"}, {"measurement": "AUC", "setting": "[2]; [5]", "result": "1870 ± 203", "unit": "ng·h/mL"}, {"measurement": "CL/F", "setting": "[2]; [5]", "result": 46.7, "unit": "mL/min/kg"}, {"measurement": "Cmax", "setting": "[2]; [5]", "result": "2460 ± 755", "unit": "ng/mL"}, {"measurement": "MRT", "setting": "[2]; [5]", "result": "132 ± 30", "unit": "min"}, {"measurement": "Tmax", "setting": "[2]; [5]", "result": "5.4 ± 2.4", "unit": "min"}, {"measurement": "half-life", "setting": "[2]; beagle, dog, plasma, im, 5 mg/kg, t1/2, k01, beagles, n = 5, mean ± S.E.", "result": "7.2 ± 4.2", "unit": "min"}, {"measurement": "half-life", "setting": "[2]; beagle, dog, plasma, im, 5 mg/kg, t1/2, α, beagles, n = 5, mean ± S.E.", "result": "7.8 ± 6.6", "unit": "min"}, {"measurement": "half-life", "setting": "[2]; beagle, dog, plasma, im, 5 mg/kg, t1/2, β (elimination half-life), beagles, n = 5, mean ± S.E.", "result": "168 ± 54", "unit": "min"}, {"measurement": "α", "setting": "[2]; [6]", "result": "67.9 ± 29.3", "unit": "h⁻¹"}, {"measurement": "β", "setting": "[2]; [6]", "result": "0.42 ± 0.15", "unit": "h⁻¹"}, {"measurement": "k01", "setting": "[2]; beagles, i.m., dose 5 mg/kg, n = 5, mean ± S.E., listed as Nal-HCl", "result": "82.5 ± 43.9", "unit": "h⁻¹"}, {"measurement": "k01", "setting": "[2]; beagles, i.m., dose 5 mg/kg, n = 5, mean ± S.E., listed as Nalbuphine HCl", "result": "82.5 ± 43.9", "unit": "h⁻¹"}, {"measurement": "k01", "setting": "[2]; beagles, i.m., dose 5 mg/kg, n = 5, mean ± S.E., listed as nalbuphine hydrochloride", "result": 82.5, "unit": "h⁻¹"}]}, {"smiles": "Oc1ccc2c(c1)[C@@]13CCCC[C@@]1(O)[C@@H](C2)N(CC1CCC1)CC3", "note": "[butorphanol]", "values": [{"measurement": "dose needed to elicit the same analgesic effect", "setting": "[3]", "result": 2, "unit": "mg"}]}, {"smiles": "CN1CC[C@]23c4c5ccc(O)c4O[C@H]2[C@@H](O)C=C[C@H]3[C@H]1C5", "note": "[morphine]", "values": [{"measurement": "dose needed to elicit the same analgesic effect", "setting": "[3]", "result": 10, "unit": "mg"}]}]}
